Test results published in BindingDB's records for doi:10.1002/bip.20588 (University of California Davis, 2006).
*1 amine or outer side, *2 acyl side, *3 side chain or, on linkers, in order; H or OH if unused. Where a SMILES comes first, the peptide text is derived from it. [ ]: non-standard residue; d: D form. The star is where a group is joined. ξ: configuration not given here. Phac(3-amino) = O=C(Cc1cccc(N[*:1])c1)[*:2]; X7 = O=C(c1ccc(-c2cccc(N[*:1])c2)o1)[*:2]; X13 = CC(C(=O)[*:2])c1ccc(N[*:1])cc1; X3 = O=C(CCCc1ccc(N[*:1])cc1)[*:2]; X9 = Cc1ccccc1NC(=O)Nc1cccc(N*)c1; X1 = O=C(Cc1ccc(N[*:1])cc1)[*:2]; X8 = O=C(COc1ccccc1N[*:1])[*:2]; Ile(3ξ) = CCC(C)[C@H](N)C(=O)O; X4 = O=C(Cc1ccccc1N[*:1])[*:2]; NH(2-Me-phenyl) = Cc1ccccc1N*; Tle = CC(C)(C)[C@H](N)C(=O)O; β3hD = NC(CC(=O)O)CC(=O)O; 4Abz = Nc1ccc(C(=O)O)cc1; Nle = CCCC[C@H](N)C(=O)O; CO = O=C([*:1])[*:2]; X10 = Brc1ccccc1N*

The molecules below were run against Integrin alpha-4/beta-1 (Homo sapiens, UniProt P05556+P13612, T112H) (assay: Jurkat Cell Adhesion Inhibition Assay). Settings: not given.
Procedure: Binding affinities (IC50) of the ligands were studied in a Jurkat cell adhesion assay by inhibiting the alpha-4/beta-1 mediated cell adhesion to CS-1 peptides. The 96-well plates were coated with neutravidin, followed by biotinconjugated CS-1 peptides. Jurkat cells with series dilutions of tested ligands in binding buffer were added and allowed to bind for 30 min. Bound cells were recorded using a 96-well plate reader at 570 nm. IC50 values were calculated from inhibition curves resulting from the concentration-dependent inhibition

SMILES	IC50 [nM]
CCCC[C@H](NC(=O)Cc1ccc(NC(=O)Nc2ccccc2Br)cc1)C(=O)N[C@@H](CC(=O)O)C(=O)N[C@H](C(=O)N1CCC[C@H]1C(N)=O)C(C)CC (stereo partly drawn) [(3S)-3-[(2S)-2-[1-(4-{[(2-bromophenyl)carbamoyl]amino}phenyl)acetamido]hexanamido]-3-{[(2S,3S)-1-[(2S)-2-carbamoylpyrrolidin-1-yl]-3-methyl-1-oxopentan-2-yl]carbamoyl}propanoic acid] ({X10-CO}-[X1][Nle]D[Ile(3ξ)]P-NH2)	4.8
CCCC[C@H](NC(=O)CCCc1ccc(NC(=O)Nc2ccccc2C)cc1)C(=O)N[C@@H](CC(=O)O)C(=O)N[C@H](C(=O)N1CCC[C@H]1C(N)=O)C(C)CC (stereo partly drawn) [(3S)-3-{[(2S,3S)-1-[(2S)-2-carbamoylpyrrolidin-1-yl]-3-methyl-1-oxopentan-2-yl]carbamoyl}-3-[(2S)-2-[4-(4-{[(2-methylphenyl)carbamoyl]amino}phenyl)butanamido]hexanamido]propanoic acid] ({NH(2-Me-phenyl)-CO}-[X3][Nle]D[Ile(3ξ)]P-NH2)	100
CCCC[C@H](NC(=O)Cc1ccc(NC(=O)Nc2ccccc2C)cc1)C(=O)N[C@@H](CC(=O)O)CC(=O)N[C@H](C(=O)N1CCC[C@H]1C(N)=O)C(C)CC (stereo partly drawn) [(3R)-4-{[(2S,3R)-1-[(2S)-2-carbamoylpyrrolidin-1-yl]-3-methyl-1-oxopentan-2-yl]carbamoyl}-3-[(2S)-2-[1-(4-{[(2-methylphenyl)carbamoyl]amino}phenyl)acetamido]hexanamido]butanoic acid] ({NH(2-Me-phenyl)-CO}-[X1][Nle][β3hD][Ile(3ξ)]P-NH2)	4
CCCC[C@H](NC(=O)Nc1cccc(NC(=O)Nc2ccccc2C)c1)C(=O)N[C@@H](CC(=O)O)C(=O)N[C@H](C(=O)N1CCC[C@H]1C(N)=O)C(C)CC (stereo partly drawn) [(3S)-3-{[(2S,3S)-1-[(2S)-2-carbamoylpyrrolidin-1-yl]-3-methyl-1-oxopentan-2-yl]carbamoyl}-3-[(2S)-2-{[(3-{[(2-methylphenyl)carbamoyl]amino}phenyl)carbamoyl]amino}hexanamido]propanoic acid] ({X9-CO}-[Nle]D[Ile(3ξ)]P-NH2)	3080
CCCC[C@H](NC(=O)Cc1cccc(NC(=O)Nc2ccccc2C)c1)C(=O)N[C@@H](CC(=O)O)C(=O)N[C@H](C(=O)N1CCC[C@H]1C(N)=O)C(C)CC (stereo partly drawn) [(3S)-3-{[(2S,3S)-1-[(2S)-2-carbamoylpyrrolidin-1-yl]-3-methyl-1-oxopentan-2-yl]carbamoyl}-3-[(2S)-2-[1-(3-{[(2-methylphenyl)carbamoyl]amino}phenyl)acetamido]hexanamido]propanoic acid] ({NH(2-Me-phenyl)-CO}-[Phac(3-amino)][Nle]D[Ile(3ξ)]P-NH2)	140
CCCC[C@H](NC(=O)c1ccc(NC(=O)Nc2ccccc2C)cc1)C(=O)N[C@@H](CC(=O)O)C(=O)N[C@H](C(=O)N1CCC[C@H]1C(N)=O)C(C)CC (stereo partly drawn) [(3S)-3-{[(2S,3S)-1-[(2S)-2-carbamoylpyrrolidin-1-yl]-3-methyl-1-oxopentan-2-yl]carbamoyl}-3-[(2S)-2-[(4-{[(2-methylphenyl)carbamoyl]amino}phenyl)formamido]hexanamido]propanoic acid] ({NH(2-Me-phenyl)-CO-4Abz}-[Nle]D[Ile(3ξ)]P-NH2)	3000
CCCC[C@H](NC(=O)COc1ccccc1NC(=O)Nc1ccccc1C)C(=O)N[C@@H](CC(=O)O)C(=O)N[C@H](C(=O)N1CCC[C@H]1C(N)=O)C(C)CC (stereo partly drawn) [(3S)-3-{[(2S,3S)-1-[(2S)-2-carbamoylpyrrolidin-1-yl]-3-methyl-1-oxopentan-2-yl]carbamoyl}-3-[(2S)-2-[2-(2-{[(2-methylphenyl)carbamoyl]amino}phenoxy)acetamido]hexanamido]propanoic acid] ({NH(2-Me-phenyl)-CO}-[X8][Nle]D[Ile(3ξ)]P-NH2)	463
CCCC[C@H](NC(=O)C(C)c1ccc(NC(=O)Nc2ccccc2C)cc1)C(=O)N[C@@H](CC(=O)O)C(=O)N[C@H](C(=O)N1CCC[C@H]1C(N)=O)C(C)CC (stereo partly drawn) [(3S)-3-{[(2S,3S)-1-[(2S)-2-carbamoylpyrrolidin-1-yl]-3-methyl-1-oxopentan-2-yl]carbamoyl}-3-[(2S)-2-[2-(4-{[(2-methylphenyl)carbamoyl]amino}phenyl)propanamido]hexanamido]propanoic acid] ({NH(2-Me-phenyl)-CO}-[X13][Nle]D[Ile(3ξ)]P-NH2)	3.1

Now from value to molecule:

IC50 [nM]	SMILES
7.1	CCC(C)[C@H](NC(=O)[C@H](CC(=O)O)NC(=O)[C@@H](NC(=O)Cc1ccc(NC(=O)Nc2ccccc2C)cc1)C(C)(C)C)C(=O)N1CCC[C@H]1C(N)=O (stereo partly drawn) [(3S)-3-{[(2S,3S)-1-[(2S)-2-carbamoylpyrrolidin-1-yl]-3-methyl-1-oxopentan-2-yl]carbamoyl}-3-[(2S)-3,3-dimethyl-2-[1-(4-{[(2-methylphenyl)carbamoyl]amino}phenyl)acetamido]butanamido]propanoic acid] ({NH(2-Me-phenyl)-CO}-[X1][Tle]D[Ile(3ξ)]P-NH2)
3000	CCCC[C@H](NC(=O)Cc1ccccc1NC(=O)Nc1ccccc1C)C(=O)N[C@@H](CC(=O)O)C(=O)N[C@H](C(=O)N1CCC[C@H]1C(N)=O)C(C)CC (stereo partly drawn) [(3S)-3-{[(2S,3S)-1-[(2S)-2-carbamoylpyrrolidin-1-yl]-3-methyl-1-oxopentan-2-yl]carbamoyl}-3-[(2S)-2-[1-(2-{[(2-methylphenyl)carbamoyl]amino}phenyl)acetamido]hexanamido]propanoic acid] ({NH(2-Me-phenyl)-CO}-[X4][Nle]D[Ile(3ξ)]P-NH2)
325	CCCC[C@H](NC(=O)c1ccc(-c2cccc(NC(=O)Nc3ccccc3C)c2)o1)C(=O)N[C@@H](CC(=O)O)C(=O)N[C@H](C(=O)N1CCC[C@H]1C(N)=O)C(C)CC (stereo partly drawn) [(3S)-3-{[(2S,3S)-1-[(2S)-2-carbamoylpyrrolidin-1-yl]-3-methyl-1-oxopentan-2-yl]carbamoyl}-3-[(2S)-2-{[5-(3-{[(2-methylphenyl)carbamoyl]amino}phenyl)furan-2-yl]formamido}hexanamido]propanoic acid] ({NH(2-Me-phenyl)-CO}-[X7][Nle]D[Ile(3ξ)]P-NH2)

Same assay, conditions: pH 7.5; 22 °C

IC50 [nM]	SMILES
1.4	CCCC[C@H](NC(=O)Cc1ccc(NC(=O)Nc2ccccc2C)cc1)C(=O)N[C@@H](CC(=O)O)C(=O)N[C@H](C(=O)N1CCCC[C@H]1C(N)=O)C(C)CC (stereo partly drawn) [(3S)-3-{[(2S,3S)-1-[(2S)-2-carbamoylpiperidin-1-yl]-3-methyl-1-oxopentan-2-yl]carbamoyl}-3-[(2S)-2-[1-(4-{[(2-methylphenyl)carbamoyl]amino}phenyl)acetamido]hexanamido]propanoic acid]
3	CCCC[C@H](NC(=O)Cc1ccc(NC(=O)Nc2ccccc2C)cc1)C(=O)N[C@@H](CC(=O)O)C(=O)N[C@H](C(=O)N1CCCC[C@@H]1C(N)=O)C(C)CC (stereo partly drawn) [(3S)-3-{[(2S,3S)-1-[(2R)-2-carbamoylpiperidin-1-yl]-3-methyl-1-oxopentan-2-yl]carbamoyl}-3-[(2S)-2-[1-(4-{[(2-methylphenyl)carbamoyl]amino}phenyl)acetamido]hexanamido]propanoic acid]
29	CCCC[C@H](NC(=O)Cc1ccc(NC(=O)Nc2ccccc2C)cc1)C(=O)N[C@@H](CC(=O)O)C(=O)N[C@H](C(=O)N1CCC2(CC1)C(=O)N(CC(N)=O)CN2c1ccccc1)C(C)CC (stereo partly drawn) [(3S)-3-{[(2S,3S)-1-[3-(carbamoylmethyl)-4-oxo-1-phenyl-1,3,8-triazaspiro[4.5]decan-8-yl]-3-methyl-1-oxopentan-2-yl]carbamoyl}-3-[(2S)-2-[1-(4-{[(2-methylphenyl)carbamoyl]amino}phenyl)acetamido]hexanamido]propanoic acid]
